Earlier results as cited in patent US20060159689A1, “Combinations of tumor-associated antigens in diagnostics for various types of cancers” (priority 2004, published 2006).

System: VEGF-A
Conditions: colorectal, lung, breast, ovarian carcinoma and other cancers

Chain of VEGF-A (P15692 207-311 limits assumed): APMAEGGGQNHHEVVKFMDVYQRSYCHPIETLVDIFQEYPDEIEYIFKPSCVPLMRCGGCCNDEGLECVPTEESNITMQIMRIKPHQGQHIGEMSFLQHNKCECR

bevacizumab
effect on tumor progression and metastatic disease: control of tumor progression and metastatic disease
